The results in this text go back to patent US4341784A, “Naphthyridine derivatives” (priority 1979, dated 1982).

In series [1] the test system is Streptococcus pyogenes 65-A. Nature of the series: In vivo efficacy against systemic infections in mice (intraperitoneal infection). Set-up: species or system male mice (ddY). Particulars: 168 h, po, twice, about 5 minutes and 6 hours after intraperitoneal infection, observed 7 days. The procedure: (§1) Each of the solutions was orally administered to mice infected with each of test organisms under the conditions described below, and the medium effective doses (ED50) obtained are shown in Table II. Male mice (ddY) weighing about 20 g (2) Streptococcus pyogenes 65-A: Intraperitoneal infection with about 3×10^7 cells per mouse suspended in barin heart infusion broth. Twice, about 5 minutes and 6 hours after infection. |Streptococcus pyogenes 65-A |Escherichia coli P-5101 for 7 days | The numerals in the table show ED50 (mg/kg). ED50 values were | calculated in accordance with the BehrensKaerber method (Arch. Exp. Path. | Pharm., 162, 480 (1931)). | po: oral administration.

Another series has as its system Escherichia coli P-5101. Described as above. Set-up: species or system male mice (ddY). As to conditions: P5101, 168 h, po, twice, about 5 minutes and 6 hours after intraperitoneal infection, observed 7 days. The procedure:
as §1, with “(3) Escherichia coli P-5101:” for “(2) Streptococcus pyogenes 65-A:”, “9×10^6” for “3×10^7”, “trypto-soy broth with 4% mucin.” for “barin heart infusion broth.”, “infection.” for “infection. |Streptococcus pyogenes 65-A”

Series [2] has as its system Pseudomonas aeruginosa No. 12. Described as above. The arrangement: species or system male mice (ddY). As to conditions: NO.12, 168 h, po, twice, about 5 minutes and 6 hours after intraperitoneal infection, observed 7 days. The protocol:
as §1, with “(4) Pseudomonas aeruginosa No. 12:” for “(2) Streptococcus pyogenes 65-A:”, “5×10^3” for “3×10^7”, “trypto-soy broth with 4% mucin.” for “barin heart infusion broth.”, “infection.” for “infection. |Streptococcus pyogenes 65-A”, “days |Pseudomonas aeruginosa No. 12” for “days”

A short description of series [3]: Acute toxicity in intravenous injection.

Consider `CCn1cc(C(=O)O)c(=O)c2cc(F)c(N3CCC(NC)C3)nc21.Cl` (stereo not shown) [Compound 2, 1-Ethyl-6-fluoro-1,4-dihydro-7-(3-methylamino-1-pyrrolidinyl)-4-oxo-1,8-naphthyridine-3-carboxylic acid hydrochloride], for which the ED50 (commonly the dose at which the effect has come halfway, by size or by number of responders) is 42 mg/kg in series [1], 1.4 mg/kg in the series on Escherichia coli P-5101 and 6.5 mg/kg in series [2]. Moreover, the “acute toxicity in intravenous injection compared with Compound 1 (in words)” value in series [3] is “lower acute toxicity in intervenous injection than Compound 1”.

For `CCn1cc(C(=O)O)c(=O)c2cc(F)c(N3CCC(N)C3)nc21.Cl` (stereo not shown) [Compound 1, 7-(3-Amino-1-pyrrolidinyl)-1-ethyl-6-fluoro-1,4-dihydro-4-oxo-1,8-naphthyridine-3-carboxylic acid hydrochloride], the ED50 in series [1] is 21 mg/kg; in the series with Escherichia coli P-5101, 1.7 mg/kg; in series [2], 3.7 mg/kg.
